# Laboratory results published in the SangsterLogP compilation.
# Residues, ends and D or L forms follow the SMILES beside them. *: point of attachment. Cbz = O=C(OCc1ccccc1)*
# Experiment: method code SF, from Hansch, C. & Leo, A. (1987). Log P database [Dataset]. Pomona College Medicinal Chemistry Project.
# Settings: not given
row,logP,SMILES
1,1.88,CNc1nccn2cc(-c3ccc(S(C)=O)cc3OC)nc12 (centres undefined)
2,3.61,O=C(/C=C/c1ccccc1)Nc1ccccc1
3,3.65,Nc1ccc(C2CCCCC2)cc1
4,3.65,CC(C)(C)c1cc(O)ccc1[N+](=O)[O-]
5,1.48,Clc1nnnn1-c1ccccc1
6,1.25,CCc1ccc2c(c1)N=C(C)NS2(=O)=O
7,0.01,CC(=O)Nc1ccc(C(N)=O)cc1
8,2.46,CCOC(=O)C(=Cc1ccc(OC)cc1)C(C)=O
9,0.01,CN(C)C(=O)Cc1ccco1
10,2.57,CC1CCCCC1(C)NC(=O)N(CCCl)N=O (centres undefined)
11,4.03,CCC(C)NC(=O)C=C(c1ccc(Cl)cc1)C(C)C (centres undefined)
12,1,CC(=O)Nc1ccc(N(C)C)cc1
13,1.41,O=C(O)Cc1c[nH]c2ccccc12
14,0.88,CCOC(=O)c1ccccn1
15,0.3,CN(C(=O)CC[N+](=O)[O-])c1ccc(S(=O)(=O)N(C)C)cc1
16,2.61,COc1ccc(/N=N/N(C)C(C)=O)cc1
17,2.01,CCCCC[N+](=O)[O-]
18,2.19,Nc1ccc2cc3ccccc3nc2c1
19,-0.46,O=c1[nH]c(=O)n([C@H]2C[C@H](O)[C@@H](CO)O2)cc1C(F)(F)F
20,0.85,N#CCc1ccco1
21,-0.13,N#CCC(N)=C(C#N)C#N
22,4.36,Cc1cc(CSc2ccccc2C(C)C)c(O)c(C(=O)O)c1

row,logP,SMILES
1,1.31,CN1C(=O)c2ccccc2C1=O
2,2,CC(C)C1=Nc2cc(Cl)ccc2S(=O)(=O)N1
3,3.79,c1ccc(COc2ccccc2)cc1
4,2.19,CC(=O)C(=Cc1ccccc1Cl)C(C)=O
5,3.04,CCOC(=O)C(=Cc1ccccc1F)C(=O)OCC
6,0.48,Oc1cccnc1
7,3.12,Cc1ccc(Nc2ccc(O)c3c2C(=O)c2ccccc2C3=O)cc1
8,-0.22,Nc1ncccn1
9,1.88,COc1ccc(C=C(C(C)=O)C(C)=O)c(OC)c1
10,0.7,OCC(O)COc1ccccc1 (centres undefined)
11,-0.97,Nc1c(S(=O)(=O)O)ccc2ccccc12
12,1.98,COc1ccc(C(C)=O)c(O)c1
13,1.86,COc1ccccc1C(=O)c1ccncc1
14,1.14,CN(C)c1ccc(C(N)=O)cc1
15,3.2,CCOC(=Cc1ccccc1)C(=O)NC(C)CC (centres undefined)
16,1.01,Nc1ccc(OC(=O)CNC(=O)c2ccccc2)cc1
17,2.47,CCC(C)C1=Nc2ccc(Cl)cc2S(=O)(=O)N1 (centres undefined)
18,2.42,CCCCC(=O)c1ccc[nH]1
19,1.85,Clc1ccc2[nH]c(CCCCc3nc4cc(Cl)ccc4[nH]3)nc2c1
20,2.44,O=C(O)c1ccc(NCc2ccccc2)cc1
21,1.65,CC(=O)C(=Cc1ccc(F)cc1)C(C)=O
22,1.67,O=[N+]([O-])c1ccc(C=Cc2nccn2Cc2ccncc2)o1

row,logP,SMILES
1,2.82,CCc1ccsc1
2,2.26,O=C(OC(=O)c1ccccc1)c1ccccc1
3,-0.55,O=[N+]([O-])c1cc[n+]([O-])cc1
4,1.37,COc1ccc(Cn2ccnc2C=Cc2ccc([N+](=O)[O-])o2)cc1
5,1.01,CC(C)(C)[N+](=O)[O-]
6,1.51,CN(C)C(=O)Nc1ccc([N+](=O)[O-])cc1
7,1.68,O=S1(=O)NC(c2cccs2)=Nc2ccccc21
8,1.87,CC1(C)Oc2c(O)cccc2C1=O
9,0.91,NC(=O)c1cccc(F)c1
10,0.03,Cc1nnc(C)s1
11,3.11,CON(C)C(=O)Nc1cccc(OCc2ccccc2)c1
12,0.48,N#Cc1ccc(C(N)=O)cc1
13,0.87,O=S(=O)(Nc1cn[nH]c1)c1ccccc1
14,2.09,CC(C)Oc1ccccc1O
15,0.23,COc1cccc2c1C(=O)c1c(O)c3c(c(O)c1C2=O)CC(O)(C(=O)CN1CCOCC1)CC3OC1CC(N)C(O)C(C)O1 (centres undefined)
16,1.65,NC(=O)c1cccc(Br)c1
17,0.25,CC(=O)OCC(COC(C)=O)OC(C)=O
18,1.38,CC1CCC(=O)CC1
19,2.57,Cc1ccc2ncccc2c1
20,4.71,CC(CN(C)C)CN1c2ccccc2Sc2ccccc21 (centres undefined)
21,2.75,CN(C)/N=N/c1cccc([N+](=O)[O-])c1
22,2.8,CN(C)C(=O)N(c1ccccc1)c1ccccc1

row,logP,SMILES
1,0.5,NC(=O)c1ccsc1
2,3.12,CC[C@H]1OC(=O)[C@H](C)[C@@H](OC2CC(C)(OC)C(O)C(C)O2)C(C)[C@@H](OC2OC(C)CC(N(C)C)C2O)[C@](C)(O)C[C@@H](C)C(=O)[C@H](C)[C@@H](O)[C@H]1C (some centres undefined)
3,0.44,c1cscn1
4,3.47,CCCCCN(CCCCC)/N=C/c1c2c(O)c3c(O)c(C)c4c(c3c1O)C(=O)C(C)(O/C=C\C(OC)C(C)C(OC(C)=O)C(C)C(O)C(C)C(O)C(C)/C=C\C=C(C)C(=O)N2)O4 (centres undefined)
5,2.02,CN(C)c1ccc(N=C2C=CC(=O)C=C2)cc1
6,0.49,NC(=O)NC1OC(=O)c2ccccc21 (centres undefined)
7,1.62,O=[N+]([O-])c1ccc2[nH]c(CCCc3nc4cc([N+](=O)[O-])ccc4[nH]3)nc2c1
8,1.49,COc1cc(S(C)=O)ccc1-c1cn2ccnc(OC)c2n1 (centres undefined)
9,0.32,OCC(F)(F)F
10,3.58,COc1cc(OC)c(OC)c2c1CC[C@H](NC(C)=O)c1cc(=O)c(NCc3ccccc3)ccc1-2
11,2.27,CCOCCOC(=O)C(C#N)=C(CC)Nc1ccc(N)cc1
12,-0.23,COC(=O)CNC(=O)c1ccc(N)cc1
13,3.58,O=C1c2ccccc2-c2ccccc21
14,2.56,CCc1ccc(OC(C)=O)cc1
15,1.37,CC1=Nc2ccc(Br)cc2S(=O)(=O)N1
16,1.33,CCCCNC
17,2.46,O=C(CNC(=O)c1ccccc1)Oc1cccc([N+](=O)[O-])c1
18,2.32,CC(=O)C(=Cc1ccc(Cl)cc1)C(C)=O
19,1.43,Nc1ccccc1S

row,SMILES,logP
1,COc1cc(C=NO)ccc1OCCOC(=O)c1cccc(Cl)c1,3.94
2,CC1(C)OC2CC3C4CC(F)C5=CC(=O)C(Cl)=CC5(C)C4(F)C(O)CC3(C)C2(C(=O)CO)O1 (centres undefined),2.99
3,CNP(=O)(OC)Oc1cc(Cl)c(Cl)cc1Cl (centres undefined),3.06
4,O=C(O)c1cc(=O)c2cc3c(cc2o1)CCCC3,3.4
5,CCOP(=S)(OCC)Oc1ccc(SC)c(Cl)c1,5.06
6,O=C(Nc1ccccc1)c1cc(N2CC2)c([N+](=O)[O-])cc1[N+](=O)[O-],2.23
7,N#Cc1c[nH]c2ccccc12,2.32
8,COc1ccccc1N,1.18
9,O=C(NC1CC1)c1cc(N2CC2)c([N+](=O)[O-])cc1[N+](=O)[O-],0.74
10,COP(=S)(NC(C)C)Oc1ccc(Cl)cc1Cl (centres undefined),4.3
11,S=c1cc[nH]cc1,0.2
12,CNc1cccc2ccccc12,2.88
13,CC(=O)OCCC(=O)N(C)c1ccc(S(=O)(=O)N(C)C)cc1,0.26
14,CN(CCO)C1=C(N2CC2)C(=O)C(N(C)CCO)=C(N2CC2)C1=O,-0.37
15,CNP(=O)(OC)Oc1ccccc1Cl (centres undefined),1.61
16,CCOC(=O)CC(=O)C=Cc1ccccc1C,2.66
17,CCC(=O)OCC(=O)[C@@]1(OC(=O)CC)[C@H](C)C[C@H]2[C@@H]3C[C@H](F)C4=CC(=O)C(Cl)=C[C@]4(C)[C@@]3(F)[C@@H](O)C[C@@]21C,4.22
18,CC(=O)Nc1ccc(S(=O)(=O)F)cc1,2.17

row,SMILES,logP
1,N#CCc1cccs1,1.26
2,C#CCCC(=O)N(C)c1ccc(S(=O)(=O)N(C)C)cc1,0.88
3,CCCCNP(=O)(OC)Oc1cc(Cl)c(Cl)cc1Cl (centres undefined),4.18
4,CO[C@@H]1O[C@H](COC(C)=O)[C@@H](OC(C)=O)[C@H](NC(=O)N(CCCl)N=O)[C@H]1OC(C)=O,0.67
5,COc1ccc(-c2nc3cnccc3[nH]2)c(OCCCCl)c1,3.53
6,O=C1C=CC(=NCl)C=C1,1.26
7,CCOP(=O)(OCC)OCC,0.8
8,O=c1cc(-c2ccccc2)oc2cc(O)ccc12,3.62
9,O=Nc1ccc(O)cc1,1.29
10,CC(C)(C)[N+]([O-])=NC#N,1.4
11,Nc1cccc(Cl)c1,1.9
12,CC(C)C(NC(=O)OCc1ccccc1)C(=O)NC(Cc1ccc(O)cc1)C(=O)O (stereo not drawn) (Cbz-Val-Tyr-OH; configuration not given here),2.43
13,CC1CO1 (centres undefined),0.03
14,CC(C)CC(CC(C)C)OC(=O)c1ccc(NC(=O)N(C)C)cc1Cl,5.15
15,ClCCCCl,2
16,Cn1cnc2ccccc2c1=O,0.69
17,NCCc1c[nH]c2ccc(O)cc12,0.21

# Same assay, conditions: pH 1.0
row,logD,SMILES
1,0.75,O=C(O)c1cccc([N+](=O)[O-])c1C(=O)O
2,0.81,CC(=O)c1ccccc1C(=O)O
3,2.58,CC(=O)c1c(O)oc(=O)c(/C(C)=N/c2ccccc2)c1O

# Same assay, conditions: pH 1.4
row,logD,SMILES
1,0.16,Oc1cc(O)cc(O)c1

# Same assay, conditions: pH 2.0
row,SMILES,logD
1,Cn1cc(C(=O)O)c2ccccc21,1.76

# Same assay, conditions: pH 6.4
row,logD,SMILES
1,2.82,Oc1ccc(Nc2ccccc2)cc1

# Same assay, conditions: pH 7.0
row,logD,SMILES
1,1.43,CNc1ncnc2ccsc12
2,0.27,CC(=O)Oc1ccc(C(N)=O)cc1

row,SMILES,logD
1,NC(=O)c1ccc(N)nc1,0.7

# Same assay, conditions: pH 7.3
row,logD,SMILES
1,2.31,Nc1ncnc2nc(-c3ccccc3)[nH]c12

# Same assay, conditions: pH 7.4
row,logD,SMILES
1,1.12,Cc1c(N(C)C)c(=O)n(CCO)c(=O)n1-c1ccccc1
2,0.85,Cc1c(N(C)C)c(=O)n(-c2ccccc2)c(=O)n1CCO
3,1.3,Cc1c(N(C)C)c(=O)n(-c2ccccc2)c(=O)n1C
4,-1.02,O=NN(CCCl)C(=O)N[C@@H]1[C@@H](O)[C@H](O)[C@@H](CO)O[C@H]1O

row,SMILES,logD
1,CCCCNc1c(C)n(C)c(=O)n(-c2ccccc2)c1=O,1.69
2,Cc1c(N2CCCC2)c(=O)n(-c2ccccc2)c(=O)n1C,2.26

# Same assay, conditions: pH 11.0
row,SMILES,logD
1,c1cncc(CN2CCCCC2)c1,1.49
2,CCNCCc1cccnc1,0.54
3,c1cncc(CN2CCOCC2)c1,0.04

# Same assay, conditions: pH 12.0
row,SMILES,logD
1,CCCCC1CC(C(=O)NC(C(C)O)C2OC(SC)C(O)C(O)C2O)N(CC)C1 (centres undefined),1.76
2,CCCC1CC(C(=O)NC(C(C)Cl)C2OC(SC)C(O)C(O)C2O)N(CC)C1 (centres undefined),2.51

# Same assay, conditions: pH 12.3
row,logD,SMILES
1,1.77,CCCC1CNC(C(=O)NC(C(C)Br)C2OC(SC)C(O)C(O)C2O)C1 (centres undefined)

# Same assay, conditions: pH 13.0
row,SMILES,logD
1,COc1cccc(Cc2cnc(N)nc2N)c1OC,1.62
2,CN(c1ccccc1)c1ccccc1,3.9
